Data on 9 compounds can be found in US8497286B2, “Organic compounds” (Novartis AG, priority 2007, dated 2013).

As usually defined, the IC50 is the concentration at which inhibition is half-maximal.

This experiment has as its target recombinant human renin (Homo sapiens (Human), UniProt P00797). Put plainly: Renin inhibitory activity in vitro, FRET assay (item 2). The format is biochemical. To be noted: recombinant human renin 0.5 nM, 2 h at 37° C., pH 7.4, peptide substrate 4 μM. As to the method: Inter alia the following in vitro tests may be used: • 1) Recombinant human renin (expressed in Chinese Hamster Ovary cells and purified using standard methods) at 7.5 nM concentration is incubated with test compound at various concentrations for 1 h at RT in 0.1 M Tris-HCl buffer, pH 7.4, containing 0.05 M NaCl, 0.5 mM EDTA and 0.05% CHAPS. Synthetic peptide substrate […] is added to a final concentration of 2 μM and increase in fluorescence is recorded at an excitation wave-length of 350 nm and at an emission wave-length of 500 nm in a microplate spectro-fluorimeter. IC50 values are calculated from percentage of inhibition of renin activity as a function of test compound concentration (Fluorescence Resonance Energy Transfer, FRET, assay). […] Synthetic peptide substrate […] is added to a final concentration of 4 μM and increase in fluorescence is recorded at an excitation wave-length of 340 nm and at an emission wave-length of 485 nm in a microplate spectro-fluorimeter. IC50 values are calculated from percentage of inhibition of renin activity as a function of test compound concentration (Fluorescence Resonance Energy Transfer, FRET, assay). […] The enzyme reaction is stopped by adding an excess of a blocking inhibitor. The product of the reaction is separated by capillary electrophoresis and quantified by spectrophotometric measurement at […] wave-length. IC50 values are calculated from percentage of inhibition of renin activity as a function of test compound concentration. […] The enzyme reaction is stopped by adding an excess of a blocking inhibitor. The product of the reaction is separated by capillary electrophoresis and quantified by spectrophotometric measurement at […] wave-length. IC50 values are calculated from percentage of inhibition of renin activity as a function of test compound concentration. […] Renin inhibitory activity was assessed in vitro by the method as outlined above in item 2).

recombinant human renin, sequence (P00797 67-406): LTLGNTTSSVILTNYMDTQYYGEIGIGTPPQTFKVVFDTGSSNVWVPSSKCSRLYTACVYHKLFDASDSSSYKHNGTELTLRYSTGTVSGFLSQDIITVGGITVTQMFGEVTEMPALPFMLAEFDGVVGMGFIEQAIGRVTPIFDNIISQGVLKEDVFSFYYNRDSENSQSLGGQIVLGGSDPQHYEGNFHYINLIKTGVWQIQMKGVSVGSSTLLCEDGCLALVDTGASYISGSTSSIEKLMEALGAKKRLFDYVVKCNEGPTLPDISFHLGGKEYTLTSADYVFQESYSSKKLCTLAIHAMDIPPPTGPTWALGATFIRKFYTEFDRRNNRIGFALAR

For `CCOC[C@@H](CC(C)C)NC(=O)[C@@H]1CNC[C@H](C(=O)N(c2ccc(C(C)C)cn2)C2CC2)C1` [Example 1], the concentration for half-maximal inhibition (IC50) came to 0.9 nM.

On to `CCOC[C@@H](NC(=O)[C@@H]1CNC[C@H](C(=O)N(c2ccc(C(C)C)cn2)C2CC2)C1)C1CCCCC1` [Example 2], for which the concentration for half-maximal inhibition (IC50) came to 3 nM.

With `CCOC[C@@H](CC(C)C)NC(=O)[C@@H]1CNC[C@H](C(=O)N(CC(C)C)c2cc(OCCCOC)c(C(C)C)cn2)C1` [Example 3], the half-maximal inhibitory concentration (IC50) stood at 0.6 nM.

With `CCOC[C@@H](CC(C)C)NC(=O)[C@@H]1CNC[C@H](C(=O)N(c2cc(OC)c(C(C)C)cn2)C2CC2)[C@@H]1O` [Example 13], the 50% inhibitory concentration (IC50) amounted to 0.8 nM.

Regarding `CCOC[C@@H](CC(C)C)NC(=O)[C@@H]1CNC[C@H](C(=O)N(c2cc(OCC)c(CC)cn2)C2CC2)[C@@H]1O` [Example 14], the IC50 stood at 0.3 nM.

`CCOC[C@@H](CC(C)C)NC(=O)[C@@H]1CNC[C@H](C(=O)N(CC(C)C)c2cc(OCCCO)c(C(C)C)cn2)[C@@H]1O` [Example 15]: the IC50 stood at 6 nM.

Consider `CCOC[C@H](NC(=O)[C@@H]1CNC[C@H](C(=O)N(c2ccc(C(C)C)cn2)C2CC2)[C@@H]1O)C(C)C` [Example 16], for which the 50% inhibitory concentration (IC50) was 2.5 nM.

As for `COC[C@H]1CC[C@H](NC(=O)[C@@H]2CNC[C@H](C(=O)N(c3cc(OC)c(C(C)C)cn3)C3CC3)[C@@H]2O)CC1` [Example 17], the IC50 worked out at 9 nM.

As for `CCOC[C@H](NC(=O)[C@@H]1CNC[C@H](C(=O)N(c2cc(OCC)c(CC)cn2)C2CC2)[C@@H]1O)C(C)C` [Example 18], the IC50 stood at 0.6 nM.
